Source: patent US6737383B1, “Herbicidal oxadiazolidines” (priority 1999, dated 2004)

Key:
[1] = test system: purple nutsedge; assay: Test B pre/postemergence purple nutsedge; type: in vivo, Cyperus rotundus
How it was run: (§1)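 Test chemicals in a non-phytotoxic solvent mixture with surfactant were sprayed preemergence onto planted seeds and postemergence onto plants 2 to 18 cm tall (1- to 4-leaf stage). After twelve to sixteen days in a greenhouse, injury was visually rated against untreated controls from 0 (no effect) to 10 (complete control).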

[2] = test system: bedstraw; assay: Test B pre/postemergence bedstraw; type: in vivo, Galium aparine
How it was run: as §1

[3] = test system: morningglory; assay: Test B pre/postemergence morningglory; type: in vivo, Ipomoea hederacea
How it was run: as §1

[4] = test system: rape; assay: Test B pre/postemergence rape; type: in vivo, Brassica napus
How it was run: as §1

[5] = test system: soybean; assay: Test B pre/postemergence soybean; type: in vivo, Glycine max
How it was run: as §1

[6] = test system: sugar beet; assay: Test B pre/postemergence sugar beet; type: in vivo, Beta vulgaris
How it was run: as §1

[7] = test system: corn; assay: Test B pre/postemergence corn; type: in vivo, Zea mays
How it was run: as §1

[8] = test system: cocklebur; assay: Test B pre/postemergence cocklebur; type: in vivo, Xanthium strumarium
How it was run: as §1

[9] = test system: giant foxtail; assay: Test B pre/postemergence giant foxtail; type: in vivo, Setaria faberii
How it was run: as §1

[10] = test system: surinam grass; assay: Test B pre/postemergence surinam grass; type: in vivo, Brachiaria decumbens
How it was run: as §1

[11] = test system: pigweed; assay: Test B pre/postemergence pigweed; type: in vivo, Amaranthus retroflexus
How it was run: as §1

[12] = test system: wheat; assay: Test B pre/postemergence wheat; type: in vivo, Triticum aestivum
How it was run: as §1

[13] = test system: velvetleaf; assay: Test B pre/postemergence velvetleaf; type: in vivo, Abutilon theophrasti
How it was run: as §1

[14] = test system: crabgrass; assay: Test B pre/postemergence crabgrass; type: in vivo, Digitaria sanguinalis
How it was run: as §1

[15] = test system: duck salad; assay: Test B flood test duck salad; type: in vivo, Heteranthera limosa
How it was run: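 Read-out is a visual response score from 0 (no effect) to 10 (complete control), assigned by comparison with untreated controls. Treatment was applied at the 2-leaf stage, and plants stayed in the greenhouse for twelve to sixteen days before scoring.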

[16] = Postemergence, Rate 62 g/ha, scale 0 to 10, 0 is no effect, 10 is complete control
[17] = Postemergence, Rate 250 g/ha, scale 0 to 10, 0 no effect, 10 complete control
[18] = Preemergence, Rate 62 g/ha, scale 0 to 10, 0 is no effect, 10 is complete control
[19] = Preemergence, Rate 125 g/ha, scale 0 to 10 (0 no effect, 10 complete control)
[20] = Preemergence, Rate 250 g/ha, scale of 0 to 10 where 0 is no effect and 10 is complete control
[21] = Preemergence, Rate 500 g/ha, scale 0 (no effect) to 10 (complete control)
[22] = Rate 125 g/ha, Postemergence, scale 0 to 10, 0 no effect, 10 complete control
[23] = Rate 500 g/ha, Postemergence, 0 to 10 scale (0 no effect, 10 complete control)

## Cc1cccc(C)c1-n1c(=O)on(C(=O)N(c2ccc(F)cc2)C(C)C)c1=O [Compound 18]
[1]; [16]
  Nutsedge plant response rating: 0
[1]; [17]
  Nutsedge plant response rating: 0
[1]; [18]
  Plant response rating, Nutsedge: 0
[1]; [19]
  Plant response rating, Nutsedge: 0
[1]; [20]
  Plant response rating, Nutsedge: 0
[1]; [21]
  Nutsedge plant response rating: 0
[1]; [22]
  Nutsedge plant response rating: 0
[1]; [23]
  Nutsedge plant response rating: 0
[2]; [16]
  Bedstraw plant response rating: 2
[2]; [17]
  Bedstraw plant response rating: 7
[2]; [18]
  Plant response rating, Bedstraw: 0
[2]; [19]
  Plant response rating, Bedstraw: 0
[2]; [20]
  Plant response rating, Bedstraw: 0
[2]; [21]
  Bedstraw plant response rating: 3
[2]; [22]
  Bedstraw plant response rating: 7
[2]; [23]
  Bedstraw plant response rating: 9
[3]; [16]
  Morningglory plant response rating: 1
[3]; [17]
  Morningglory plant response rating: 2
[3]; [18]
  Plant response rating, Morningglory: 0
[3]; [19]
  Plant response rating, Morningglory: 0
[3]; [20]
  Plant response rating, Morningglory: 0
[3]; [21]
  Morningglory plant response rating: 2
[3]; [22]
  Morningglory plant response rating: 1
[3]; [23]
  Morningglory plant response rating: 3
[4]; [16]
  Rape plant response rating: 0
[4]; [17]
  Rape plant response rating: 0
[4]; [18]
  Plant response rating, Rape: 0
[4]; [19]
  Plant response rating, Rape: 0
[4]; [20]
  Plant response rating, Rape: 0
[4]; [21]
  Rape plant response rating: 2
[4]; [22]
  Rape plant response rating: 0
[4]; [23]
  Rape plant response rating: 1
[5]; [16]
  Soybean plant response rating: 2
[5]; [17]
  Soybean plant response rating: 3
[5]; [18]
  Plant response rating, Soybean: 0
[5]; [19]
  Plant response rating, Soybean: 0
[5]; [20]
  Plant response rating, Soybean: 0
[5]; [21]
  Soybean plant response rating: 0
[5]; [22]
  Soybean plant response rating: 3
[6]; [16]
  Sugarbeets plant response rating: 0
[6]; [17]
  Sugarbeets plant response rating: 0
[6]; [18]
  Plant response rating, Sugarbeets: 0
[6]; [19]
  Plant response rating, Sugarbeets: 0
[6]; [20]
  Plant response rating, Sugarbeets: 2
[6]; [21]
  Sugarbeets plant response rating: 4
[6]; [22]
  Sugarbeets plant response rating: 0
[7]; [16]
  Corn plant response rating: 0
[7]; [17]
  Corn plant response rating: 0
[7]; [18]
  Plant response rating, Corn: 0
[7]; [19]
  Plant response rating, Corn: 0
[7]; [20]
  Plant response rating, Corn: 0
[7]; [21]
  Corn plant response rating: 0
[7]; [22]
  Corn plant response rating: 0
[7]; [23]
  Corn plant response rating: 0
[8]; [16]
  Cocklebur plant response rating: 0
[8]; [17]
  Cocklebur plant response rating: 1
[8]; [18]
  Plant response rating, Cocklebur: 0
[8]; [19]
  Plant response rating, Cocklebur: 0
[8]; [20]
  Plant response rating, Cocklebur: 0
[8]; [21]
  Cocklebur plant response rating: 0
[8]; [22]
  Cocklebur plant response rating: 0
[8]; [23]
  Cocklebur plant response rating: 2
[9]; [16]
  Giant foxtail plant response rating: 0
[9]; [17]
  Giant foxtail plant response rating: 1
[9]; [18]
  Plant response rating, Giant foxtail: 2
[9]; [19]
  Plant response rating, Giant foxtail: 5
[9]; [20]
  Plant response rating, Giant foxtail: 8
[9]; [21]
  Giant foxtail plant response rating: 9
[9]; [22]
  Giant foxtail plant response rating: 1
[9]; [23]
  Giant foxtail plant response rating: 3
[10]; [16]
  B. signalgrass plant response rating: 0
[10]; [17]
  B. signalgrass plant response rating: 0
[10]; [18]
  Plant response rating, B. signalgrass: 0
[10]; [19]
  Plant response rating, B. signalgrass: 0
[10]; [20]
  Plant response rating, B. signalgrass: 7
[10]; [21]
  B. signalgrass plant response rating: 8
[10]; [22]
  B. signalgrass plant response rating: 0
[10]; [23]
  B. signalgrass plant response rating: 2
[11]; [16]
  Redroot pigweed plant response rating: 1
[11]; [17]
  Redroot pigweed plant response rating: 1
[11]; [18]
  Plant response rating, Redroot pigweed: 4
[11]; [19]
  Plant response rating, Redroot pigweed: 7
[11]; [20]
  Plant response rating, Redroot pigweed: 8
[11]; [21]
  Redroot pigweed plant response rating: 9
[11]; [22]
  Redroot pigweed plant response rating: 1
[11]; [23]
  Redroot pigweed plant response rating: 6
[12]; [16]
  Wheat plant response rating: 0
[12]; [17]
  Wheat plant response rating: 0
[12]; [18]
  Plant response rating, Wheat: 0
[12]; [19]
  Plant response rating, Wheat: 0
[12]; [20]
  Plant response rating, Wheat: 0
[12]; [21]
  Wheat plant response rating: 0
[12]; [22]
  Wheat plant response rating: 0
[13]; [16]
  Velvetleaf plant response rating: 0
[13]; [17]
  Velvetleaf plant response rating: 1
[13]; [18]
  Plant response rating, Velvetleaf: 0
[13]; [19]
  Plant response rating, Velvetleaf: 0
[13]; [20]
  Plant response rating, Velvetleaf: 0
[13]; [21]
  Velvetleaf plant response rating: 0
[13]; [22]
  Velvetleaf plant response rating: 0
[14]; [16]
  Crabgrass plant response rating: 0
[14]; [17]
  Crabgrass plant response rating: 7
[14]; [18]
  Plant response rating, Crabgrass: 6
[14]; [19]
  Plant response rating, Crabgrass: 5
[14]; [20]
  Plant response rating, Crabgrass: 8
[14]; [21]
  Crabgrass plant response rating: 10
[14]; [22]
  Crabgrass plant response rating: 3
[14]; [23]
  Crabgrass plant response rating: 9
[15]; [16]
  Ducksalad plant response rating: 0
[15]; Rate 62 g/ha, headed Pre-emergence (flood test species), scale 0 to 10 (0 no effect, 10 complete control)
  Ducksalad plant response rating: 0
[15]; Rate 125 g/ha, Postemergence section (flood test species), scale 0 to 10, 0 no effect, 10 complete control
  Ducksalad plant response rating: 7
[15]; Rate 125 g/ha, Pre-emergence, flood test species, scale 0 to 10 where 0 is no effect and 10 is complete control
  Ducksalad plant response rating: 0
[15]; Rate 250 g/ha, headed Pre-emergence (flood test species), scale 0 to 10 (0 no effect, 10 complete control)
  Ducksalad plant response rating: 0
[15]; Rate 500 g/ha, Postemergence section of Table B, 0 to 10 scale (0 no effect, 10 complete control)
  Ducksalad plant response rating: 7
[15]; Rate 500 g/ha, headed Pre-emergence (flood test species), scale 0 to 10 (0 no effect, 10 complete control)
  Plant response rating, Ducksalad: 1
[15]; Rate 1000 g/ha, Pre-emergence (as headed), scale 0 to 10
  Ducksalad plant response rating: 0
[15]; Rate 2000 g/ha, Pre-emergence (as headed), scale 0 to 10
  Ducksalad plant response rating: 0
[15]; flood test, listed under Postemergence, Rate 250 g/ha, scale 0 to 10, 0 no effect, 10 complete control
  Ducksalad plant response rating: 7
